Measurements taken from US20050100561A1, “Use of topical compositions for the control of microbial diseases of the nail” (priority 2002, published 2005).
Marks after values point to notes of the source that are not given here.

Tests used:
C. krusei = conditions: modal value, n=1
Epidermophyton floccosum = conditions: modal value, n=11
C. tropicalis = conditions: modal value, n=10
Fusarium spp. = conditions: modal value, n=16
Candida albicans = conditions: modal value, n=10
M. gypseum = conditions: modal value, n=9
[1] = test system: T. mentagrophytes var interdigitale; conditions: modal value, n=19
onychomycosis = test: Treatment of onychomycosis with topical copper silicate (cream or solution), patient trial; format: in vivo, human; conditions: for Clinical - 100% clear / Clinical - New growth clear / Complete cure (KOH negative, culture negative and 100% clear) / Mycology (KOH negative and culture negative) / Mycology (KOH negative or culture negative): interim, applied twice daily
Procedure: Subjects, not already receiving anti-fungal treatment, were assessed for clinical diagnosis of onychomycosis and photographs and nail clippings were taken. Those testing positive for onychomycosis were admitted to the trial.
The anti-fungal composition (cream or solution) was applied to the infected nail twice daily for the duration of the treatment.
Estimates of the nail area involved were made during clinical visits and photographs were taken. Nail clippings were collected for KOH and dermatophyte culture. […] Results
The results presented hereunder are interim results of a 12 month study. Patients entered the trial and commenced their treatment at different dates. […] Patients were assessed at 0 (commencement). 6 weeks and 12 weeks.

Scopulariopsis spp. = conditions: modal value, n=5
T. tonsurans = conditions: modal value, n=10
C. glabrate = conditions: modal value, n=4
[2] = test system: C. pseudotropicalis (kefyr); conditions: modal value, n=1
Microsporum canis = conditions: modal value, n=9
A. fumigatus = conditions: modal value, n=12
T. mentagrophytes = conditions: modal value, n=12
A. terrus = conditions: modal value, n=7
C. parasilosis = conditions: modal value, n=10
A. niger = conditions: modal value, n=14
Aspergillus flavus = conditions: modal value, n=12
Scedosporium spp. = conditions: modal value, n=5
Trichophyton rubrum = conditions: modal value, n=26
[3] = Post-treatment Week 13 (N = 18)
[4] = Post-treatment Week 13 (N = 18), = 39 weeks
[5] = Post-treatment Week 26 (N = 18)
[6] = Treatment time Week 12 (N = 18)
[7] = Treatment time Week 26 (N = 18)

copper silicate
Minimum Fungicidal Concentration (MFC) (C. krusei): 0.0175 % w/w as Cu | Minimum Inhibitory Concentration (MIC) (C. krusei): 0.0175 % w/w as Cu | Minimum Fungicidal Concentration (MFC) (Epidermophyton floccosum): 0.0350 % w/w as Cu | Minimum Inhibitory Concentration (MIC) (Epidermophyton floccosum): 0.0350 % w/w as Cu | Minimum Fungicidal Concentration (MFC) (C. tropicalis): 0.0700 % w/w as Cu | Minimum Inhibitory Concentration (MIC) (C. tropicalis): 0.0350 % w/w as Cu | Minimum Fungicidal Concentration (MFC) (Fusarium spp.): 0.0700 % w/w as Cu | Minimum Inhibitory Concentration (MIC) (Fusarium spp.): 0.0700 % w/w as Cu | Minimum Fungicidal Concentration (MFC) (Candida albicans): 0.0700 % w/w as Cu | Minimum Inhibitory Concentration (MIC) (Candida albicans): 0.0350 % w/w as Cu | Minimum Fungicidal Concentration (MFC) (M. gypseum): 0.1400 % w/w as Cu | Minimum Inhibitory Concentration (MIC) (M. gypseum): 0.0350 % w/w as Cu | Minimum Fungicidal Concentration (MFC) [1]: 0.0350 % w/w as Cu | Minimum Inhibitory Concentration (MIC) [1]: 0.0175 % w/w as Cu | Patients culture negative (onychomycosis; 13 weeks post-treatment): 55% | Patients "effectively treated" (onychomycosis; 26 weeks post treatment): 22% | % Nail infected 0% (clear), number of patients (onychomycosis; [3]): 3 | % Nail infected 1-10%, number of patients (onychomycosis; [3]): 1 | % Nail infected 11-50%, number of patients (onychomycosis; [3]): 6 | % Nail infected >50%, number of patients (onychomycosis; [3]): 8 | Dermatophyte culture Positive, number of patients (onychomycosis; [3]): 8 | Infecting organism T. mentagrophytes v. interdigitale, number of patients (onychomycosis; [3]): 1 | Infecting organism T. rubrum, number of patients (onychomycosis; [3]): 7 | KOH Negative, number of patients (onychomycosis; [3]): 4 | KOH Positive, number of patients (onychomycosis; [3]): 14 | New growth Clear, number of patients (onychomycosis; [3]): 15 | New growth Not clear, number of patients (onychomycosis; [3]): 3 | Outcome Complete cure, number of patients (onychomycosis; [3]): 3 | Outcome Effective treatment, number of patients (onychomycosis; [3]): 3 | Outcome Mycological cure, number of patients (onychomycosis; [3]): 3 | Dermatophyte culture Negative, number of patients (onychomycosis; [4]): 10 | Outcome Mycological change (culture positive to culture negative), number of patients (onychomycosis; [4]): 7 | Outcome Not effective, number of patients (onychomycosis; Post-treatment Week 13 (N = 18), includes 1 patient that is KOH negative): 8^@ | % Nail infected 0% (clear), number of patients (onychomycosis; [5]): 3 | % Nail infected 1-10%, number of patients (onychomycosis; [5]): 2 | % Nail infected 11-50%, number of patients (onychomycosis; [5]): 6 | % Nail infected >50%, number of patients (onychomycosis; [5]): 7 | Dermatophyte culture Positive, number of patients (onychomycosis; [5]): 9 | Infecting organism T. mentagrophytes v. interdigitale, number of patients (onychomycosis; [5]): 1 | Infecting organism T. rubrum, number of patients (onychomycosis; [5]): 8 | KOH Negative, number of patients (onychomycosis; [5]): 6 | KOH Positive, number of patients (onychomycosis; [5]): 12 | New growth Clear, number of patients (onychomycosis; [5]): 15 | New growth Not clear, number of patients (onychomycosis; [5]): 3 | Outcome Effective treatment, number of patients (onychomycosis; [5]): 4 | Outcome Mycological change (culture positive to culture negative), number of patients (onychomycosis; [5]): 5 | Outcome Mycological cure, number of patients (onychomycosis; [5]): 4 | Outcome Complete cure, number of patients (onychomycosis; Post-treatment Week 26 (N = 18), = 52 weeks): 3 | Dermatophyte culture Negative, number of patients (onychomycosis; Post-treatment Week 26 (N = 18), = 52 weeks, end of the trial): 9 | Outcome Not effective, number of patients (onychomycosis; Post-treatment Week 26 (N = 18), includes 1 patient that is KOH negative): 9^@ | % Nail infected 0% (clear), number of patients (onychomycosis; Treatment time Week 6 (N = 18)): 0 | % Nail infected 1-10%, number of patients (onychomycosis; Treatment time Week 6 (N = 18)): 2 | % Nail infected 11-50%, number of patients (onychomycosis; Treatment time Week 6 (N = 18)): 5 | % Nail infected >50%, number of patients (onychomycosis; Treatment time Week 6 (N = 18)): 11 | Dermatophyte culture Negative, number of patients (onychomycosis; Treatment time Week 6 (N = 18)): 10 | Dermatophyte culture Positive, number of patients (onychomycosis; Treatment time Week 6 (N = 18)): 8 | Infecting organism T. mentagrophytes v. interdigitale, number of patients (onychomycosis; Treatment time Week 6 (N = 18)): 1 | Infecting organism T. rubrum, number of patients (onychomycosis; Treatment time Week 6 (N = 18)): 7 | KOH Negative, number of patients (onychomycosis; Treatment time Week 6 (N = 18)): 4 | KOH Positive, number of patients (onychomycosis; Treatment time Week 6 (N = 18)): 14 | New growth Clear, number of patients (onychomycosis; Treatment time Week 6 (N = 18)): 11 | New growth Not clear, number of patients (onychomycosis; Treatment time Week 6 (N = 18)): 7 | Outcome Complete cure, number of patients (onychomycosis; Treatment time Week 6 (N = 18)): 0 | Outcome Effective treatment, number of patients (onychomycosis; Treatment time Week 6 (N = 18)): 2 | Outcome Mycological change (culture positive to culture negative), number of patients (onychomycosis; Treatment time Week 6 (N = 18)): 6 | Outcome Mycological cure, number of patients (onychomycosis; Treatment time Week 6 (N = 18)): 4 | Outcome Not effective, number of patients (onychomycosis; Treatment time Week 6 (N = 18), includes 2 patients that are KOH negative): 8^# | % Nail infected 0% (clear), number of patients (onychomycosis; [6]): 3 | % Nail infected 1-10%, number of patients (onychomycosis; [6]): 1 | % Nail infected 11-50%, number of patients (onychomycosis; [6]): 4 | % Nail infected >50%, number of patients (onychomycosis; [6]): 10 | Dermatophyte culture Negative, number of patients (onychomycosis; [6]): 11 | Dermatophyte culture Positive, number of patients (onychomycosis; [6]): 7 | Infecting organism T. mentagrophytes v. interdigitale, number of patients (onychomycosis; [6]): 1 | Infecting organism T. rubrum, number of patients (onychomycosis; [6]): 6 | KOH Negative, number of patients (onychomycosis; [6]): 4 | KOH Positive, number of patients (onychomycosis; [6]): 14 | New growth Clear, number of patients (onychomycosis; [6]): 16 | New growth Not clear, number of patients (onychomycosis; [6]): 2 | Outcome Complete cure, number of patients (onychomycosis; [6]): 2 | Outcome Effective treatment, number of patients (onychomycosis; [6]): 3 | Outcome Mycological change (culture positive to culture negative), number of patients (onychomycosis; [6]): 8 | Outcome Mycological cure, number of patients (onychomycosis; [6]): 3 | Outcome Not effective, number of patients (onychomycosis; Treatment time Week 12 (N = 18), includes 1 patient that is KOH negative): 7^@ | % Nail infected 0% (clear), number of patients (onychomycosis; [7]): 3 | % Nail infected 1-10%, number of patients (onychomycosis; [7]): 1 | % Nail infected 11-50%, number of patients (onychomycosis; [7]): 8 | % Nail infected >50%, number of patients (onychomycosis; [7]): 6 | Dermatophyte culture Negative, number of patients (onychomycosis; [7]): 12 | Dermatophyte culture Positive, number of patients (onychomycosis; [7]): 6 | Infecting organism T. mentagrophytes v. interdigitale, number of patients (onychomycosis; [7]): 1 | Infecting organism T. rubrum, number of patients (onychomycosis; [7]): 5 | KOH Negative, number of patients (onychomycosis; [7]): 6 | KOH Positive, number of patients (onychomycosis; [7]): 12 | New growth Clear, number of patients (onychomycosis; [7]): 16 | New growth Not clear, number of patients (onychomycosis; [7]): 2 | Outcome Complete cure, number of patients (onychomycosis; [7]): 3 | Outcome Effective treatment, number of patients (onychomycosis; [7]): 3 | Outcome Mycological change (culture positive to culture negative), number of patients (onychomycosis; [7]): 7 | Outcome Mycological cure, number of patients (onychomycosis; [7]): 5 | Outcome Not effective, number of patients (onychomycosis; Treatment time Week 26 (N = 18), includes 1 patient that is KOH negative): 6^@ | "Mycological cure" patients (onychomycosis; after 26 weeks): 28% | Patients with >50% of nail plate diseased having significant clinical improvement (reduction to <50% of the nail plate) (onychomycosis; at 26 weeks): 50% | "Mycological cure" rate (onychomycosis; at 52 weeks): 22% | Patients culture negative (onychomycosis; end of the trial): 50% | Patients culture negative (onychomycosis; end of treatment): 67% | Clinical - 100% clear (onychomycosis; 6 Weeks (n = 13)): 0 % of Patients | Clinical - New growth clear (onychomycosis; 6 Weeks (n = 13)): 61 % of Patients | Complete cure (KOH negative, culture negative and 100% clear) (onychomycosis; 6 Weeks (n = 13)): 0 % of Patients | Mycology (KOH negative and culture negative) (onychomycosis; 6 Weeks (n = 13)): 0 % of Patients | Mycology (KOH negative or culture negative) (onychomycosis; 6 Weeks (n = 13)): 53 % of Patients | Clinical - 100% clear (onychomycosis; 12 Weeks (n = 10)): 30 % of Patients | Clinical - New growth clear (onychomycosis; 12 Weeks (n = 10)): 70 % of Patients | Complete cure (KOH negative, culture negative and 100% clear) (onychomycosis; 12 Weeks (n = 10)): 20 % of Patients | Mycology (KOH negative and culture negative) (onychomycosis; 12 Weeks (n = 10)): 20 % of Patients | Mycology (KOH negative or culture negative) (onychomycosis; 12 Weeks (n = 10)): 80 % of Patients | Minimum Fungicidal Concentration (MFC) (Scopulariopsis spp.): >0.1400 % w/w as Cu | Minimum Inhibitory Concentration (MIC) (Scopulariopsis spp.): 0.0350 % w/w as Cu | Minimum Fungicidal Concentration (MFC) (T. tonsurans): 0.0350 % w/w as Cu | Minimum Inhibitory Concentration (MIC) (T. tonsurans): 0.0350 % w/w as Cu | Minimum Fungicidal Concentration (MFC) (C. glabrate): 0.1400 % w/w as Cu | Minimum Inhibitory Concentration (MIC) (C. glabrate): 0.0350 % w/w as Cu | Minimum Fungicidal Concentration (MFC) [2]: 0.0350 % w/w as Cu | Minimum Inhibitory Concentration (MIC) [2]: 0.0350 % w/w as Cu | Minimum Fungicidal Concentration (MFC) (Microsporum canis): 0.0700 % w/w as Cu | Minimum Inhibitory Concentration (MIC) (Microsporum canis): 0.0350 % w/w as Cu | Minimum Fungicidal Concentration (MFC) (A. fumigatus): >0.1400 % w/w as Cu | Minimum Inhibitory Concentration (MIC) (A. fumigatus): 0.0350 % w/w as Cu | Minimum Fungicidal Concentration (MFC) (T. mentagrophytes): 0.0350 % w/w as Cu | Minimum Inhibitory Concentration (MIC) (T. mentagrophytes): 0.0175 % w/w as Cu | Minimum Fungicidal Concentration (MFC) (A. terrus): >0.1400 % w/w as Cu | Minimum Inhibitory Concentration (MIC) (A. terrus): 0.0700 % w/w as Cu | Minimum Fungicidal Concentration (MFC) (C. parasilosis): 0.0350 % w/w as Cu | Minimum Inhibitory Concentration (MIC) (C. parasilosis): 0.0350 % w/w as Cu | Minimum Fungicidal Concentration (MFC) (A. niger): 0.1400 % w/w as Cu | Minimum Inhibitory Concentration (MIC) (A. niger): 0.0350 % w/w as Cu | Minimum Fungicidal Concentration (MFC) (Aspergillus flavus): >0.1400 % w/w as Cu | Minimum Inhibitory Concentration (MIC) (Aspergillus flavus): 0.1400 % w/w as Cu | Minimum Fungicidal Concentration (MFC) (Scedosporium spp.): >0.1400 % w/w as Cu | Minimum Inhibitory Concentration (MIC) (Scedosporium spp.): 0.0350 % w/w as Cu | Minimum Fungicidal Concentration (MFC) (Trichophyton rubrum): 0.0350 % w/w as Cu | Minimum Inhibitory Concentration (MIC) (Trichophyton rubrum): 0.0175 % w/w as Cu
